Laboratory results: patent publication EP2077274A1, “Synthetic analogs of human beta-defensins having antimicrobial, antiviral and chemotactic activity” (Ceinge Biotecnologie Avanzate s.c. a r.l., priority 2008, dated 2009)

How the values were obtained:
[1] = tested on: monocytes; test: Chemotaxis assay (leukocyte migration, calcein fluorescence); type: cell-based, human; details: peptide 1.25 µM
Description: (§1) Preparation of leukocytes-Monocytes and neutrophils were isolated as described in the StemSep Cell Technical Manual (Stem Cell Technologies, Vancouver, Canada). Briefly, to obtain neutrophils, buffy coats were diluted 1:20 in NH4Cl supplemented with 2 mM EDTA and incubated on ice for 20 min. Cell suspensions were centrifuged for 10 min at 600 X g at room temperature with the brake off and washed three times with phosphate buffered saline (PBS) supplemented with 2% foetal bovine serum and 2 mM EDTA. Cell viability was assessed by analysis of light scatter properties, and cell count was performed using a logical gate strategy based on Trucount tubes (Becton-Dickinson, San Jose, CA, USA). Neutrophils were purified from lysed buffy coats using StemSep negative selection system. To this purpose, 100x10^6 mononuclear cells from lysed buffy coats were incubated with 100 µL of custom antibody cocktail for human granulocytes enrichment (Stem Cell Technologies) for 45 min on ice. In addition, cell suspensions were incubated with 60 µL of magnetic colloid for 30 minutes on ice. Finally, the samples were run through a 0.3-inch column matrix in a negative selection system in which the unwanted cells were immunomagnetically labelled and bound to the magnetic column. Neutrophils, after the separation, were collected in the column flowthrough without antibody bound to their surface. In order to obtain monocytes, human buffy coats were layered over a Ficoll-Paque density gradient and spun at 600 X g for 30 min with the brake off. The mononuclear cell-rich fractions were washed three times with PBS supplemented with 2% foetal bovine serum (FBS) and 2 mM EDTA. Cell viability was assessed by analysis of light scatter properties, and cell count was performed using a logical gate strategy based on Trucount tubes (Becton-Dickinson). A custom antibody cocktail for human monocyte enrichment (Stem Cells Technologies) was used for immunomagnetic negative selection of monocytes. Mononuclear cells were incubated as above described for neutrophils. Both neutrophils and monocytes were resuspended in 5.0 mL of RPMI-1640 (Sigma-Aldrich, St Louis, MO, USA) without phenol red containing 10% heat-treated FBS. Calcein AM (Molecular Probes, Eugene, OR, USA) was added to the cell suspensions (5.0 mL) at a concentration of 5 µg/mL and the cells were incubated for 30 min at 37°C. Cell suspensions were washed twice with PBS and then resuspended in RPMI-FBS to the desired concentration.
(§2) Measurement of leukocytes migration-The chemotaxis assay of monocytes and neutrophils (90-95% of purity) was performed in 96-well disposable chemotaxis chambers (Neuroprobe, Gaithersburg, MD, USA) using polyvinyl-pyrrolidone-free polycarbonate membranes with an […] pore size for monocytes and with a […] pore size for neutrophils. Chemotaxis was measured by fluorescence detection, using the calcein fluorescence signal. The fluorescence was read in a microplate fluorescence reader (Victor 3 1420 Multilabel Counter, Perkin Elmer) with excitation/emission wave-length settings of 485/530 nm. We calculated the migration index as the ratio between the sample mean fluorescence (after subtraction of the negative control mean fluorescence)/positive control mean fluorescence. Each assay was performed in quadruplicate.

[2] = tested on: neutrophils; test: as above; type: cell-based, human; details: peptide 1.25 µM
Description: as §1, §2

[3] = tested on: HSV-1; test: HSV-1 infectivity plaque assay on Vero cell monolayers (co-exposure, virus pre-treatment, cell pre-exposure); type: cell-based; details: for % of infectivity: mean and SD of 3 replicates
Description: Vero cells were grown in Dulbecco's modified Eagle's medium (DMEM) supplemented with 10% foetal calf serum. HSV-1 carrying a IacZ gene driven by the cytomegalovirus (CMV) IE-1 promoter to express beta-galactosidase was propagated as described (33). Peptides were dissolved in DMEM with serum and used at different concentrations. All experiments were conducted in parallel with scrambled peptides and no-peptide controls. […] Non-penetrated viruses were inactivated by citrate buffer at pH 3.0 after the 45 min incubation with cells at 37°C. The cells were then incubated for 48 h at 37°C in DMEM supplemented with carboxymethylcellulose (CMC). Monolayers were fixed, stained with 5-bromo-4-chloro-3-indolyl-beta-D-galactopyranoside (X-gal) and plaque numbers were scored. Experiments were performed in triplicate and the percentage of inhibition was calculated with respect to no-peptide control experiments. ii) For "virus pre-treatment" experiments, approximately 2 x 10^4 plaque forming units (PFU) of HSV-1 were incubated in the presence of 20 µM of peptides for 45 min at 37°C, then titrated on Vero cell monolayers. iii) For "cell pre-exposure" experiments, Vero cells were incubated with 20 µM of peptides for 30 min at 4°C. Peptides were removed, and cells were washed with phosphate-buffered saline before being infected with serial dilutions of HSV-1 and incubated for 45 min at 37°C.
Monolayers were exposed to different concentrations (10, 50, 100, 250 and 500 µM) of each peptide for 24 h, and cell viability was evaluated with the LDH assay. There was no significant difference between the viability of cells exposed to the peptides and that of cells exposed to control (data not shown). Thus, we evaluated the antiviral activity of wild type peptides and their analogs in: co-exposure experiments (cell + virus + peptide at zero time); virus pre-treatment (virus + peptide incubation before cell infection); and cell pre-exposure (cell + peptide incubation before virus infection). This would allow to evaluate if, and in which phase, the peptides could inhibit the virus infectivity.
For co-exposure experiments, we incubated the peptides on the monolayers of Vero cells together with the virus inoculum for 45 min before low pH treatment. The reduced form of wild-type hBD1 and hBD3 and analogs 1C, 1 N, 3C, 3N were used in all subsequent experiments. […] No control (peptide excluded) inhibited HSV-1 infectivity under similar experimental conditions.

[4] = tested on: Enterococcus faecalis ATCC 29212; test: Colony-forming unit (CFU) assay of antibacterial activity with NaCl dependence; type: cell-based; details: 0 to 200 mM NaCl; pattern as against P. aeruginosa
Description: (§3) Colony-forming unit (CFU) assay of the antibacterial activity of the peptides against P.aeruginosa ATCC (American Type Culture Collection, Manassas, VA, USA) 27853, Enterococcus faecalis ATCC 29212 and Escherichia coli ATCC 25922 was performed. The strains were grown in aerobic conditions in tryptic soy broth (Difco Laboratories, Detroit, MI, USA) at 37°C. Cells from exponential-phase cultures were centrifuged, washed and suspended to a density of 1 x 10^5 CFU/mL in sterile 10 mM potassium phosphate buffer, pH 7.4, and incubated in the presence of the peptides. The incubation time was 2 h at 37°C. […] For salt dependence assay, NaCl in a range of concentrations potentially present in the airway surface fluid of normal subjects and CF patients (33), i.e., 0, 50, 100 and 200 mM NaCl, were included in the incubation buffer. The cells were then diluted serially in the same buffer, spread on tryptone-yeast (Difco Laboratories) plates and the colonies were counted after 18 h at 37°C. Each assay was performed in triplicate. Bactericidal activity (mean and SD of three assays) is expressed as the ratio between colonies counted and the number of colonies on a control plate.

[5] = tested on: Escherichia coli ATCC 25922; test: as above; type: cell-based; details: 0 to 200 mM NaCl; pattern as against P. aeruginosa
Description: as §3

[6] = tested on: P.aeruginosa ATCC 27853; test: as above; type: cell-based; details: 200 mM NaCl; peptide 2.5 and 12.5 µM; p<0.001
Description: as §3

Sequence: DHYNCVSSGGQCLYSACPIFTKIQGTCYRGKRKCCRRKK [1C]
- chemotactic activity compared to wild-type hBD1 [1]: significantly lower
- chemotactic activity compared to wild-type hBD1 [2]: comparable to that of hBD1
- antiviral activity in words ([3]; cell pre-exposure treatment, peptide 20 µM): active
- % of infectivity ([3]; cell pre-exposure, peptide 20 µM): 24.1±2.2%
- % of infectivity ([3]; co-exposure, peptide 20 µM): 57.6±1.8 %
- inhibition of HSV infectivity ([3]; co-exposure, peptide 50 µM, reduced form): 70%
- % of infectivity ([3]; virus pre-incubation, peptide 20 µM): 40.3±2.6%
- antibacterial activity compared to wild-type hBD3, pattern over NaCl concentrations [4]: same pattern of activity
- antibacterial activity compared to wild-type hBD3, pattern over NaCl concentrations [5]: same pattern of activity
- antibacterial activity compared to wild-type hBD3 [6]: significantly higher
